# Results reported in ChEMBL document CHEMBL4823285, “Synthesis and evaluation of antimycobacterial activity of riboflavin derivatives” (Bioorg Med Chem Lett, 2021).
# pIC50: −log10 of the molar value. The source made the active and inactive calls. The rule behind the calls is not given here.
# Tests used:
# [1] = system: Mycobacterium tuberculosis; experiment: Antimycobacterial activity against Mycobacterium tuberculosis H37Rv assessed as inhibition of visible growth […]; format: functional
# THP-1 = experiment: Cytotoxicity against human THP-1 cells assessed as cell viability measured after 96 hrs by MTT assay; format: cell-based; details: THP-1, 96 h
# [2] = Selectivity index, ratio of MIC99 for Mycobacterium tuberculosis H37Rv to IC50 for human THP-1 cells; format: functional
# FMN riboswitch = experiment: Binding affinity to Lactobacillus plantarum NCDO 1752 FMN riboswitch at 150 nM measured by fluorescence assay; format: nucleic-acid assay; details: Lactiplantibacillus plantarum
# Staphylococcus aureus [3] = experiment: Antibacterial activity against Staphylococcus aureus assessed as inhibition of bacterial growth; format: functional
# Bacillus subtilis [4] = experiment: Antibacterial activity against Bacillus subtilis assessed as inhibition of bacterial growth; format: functional
# Bacillus subtilis [5] = experiment: Antibacterial activity against Bacillus subtilis assessed as inhibition of bacterial growth at 100 to 200 uM; format: functional; details: dose 100-200 µM
# Staphylococcus aureus [6] = experiment: Antibacterial activity against Staphylococcus aureus assessed as inhibition of bacterial growth at 100 to 200 uM; format: functional; details: dose 100-200 µM
Structure (SMILES),MIC99 [1] [µM],pIC50 (THP-1),Selectivity Index [2],Kb (FMN riboswitch),MIC (Staphylococcus aureus [3]) [µM],MIC (Bacillus subtilis [4]) [µM],inhibition (INH) (Bacillus subtilis [5]) [%],inhibition (INH) (Staphylococcus aureus [6]) [%],inhibition (Staphylococcus aureus [3]),inhibition (Bacillus subtilis [4])
CCCCCCCCCCCC(=O)OC[C@H](O)[C@H](O)[C@H](O)Cn1c2nc(=O)[nH]c(=O)c-2nc2cc(C)c(C)cc21,> 50,4.30,1,–,–,–,–,–,–,–
Cc1cc2nc3c(=O)[nH]c(=O)nc-3n(CC(O)O)c2cc1C,6.25,< 4.00,>10.7,5.42 10^5/M,–,–,–,–,–,–
NNC(=O)c1ccncc1 [ISONIAZID],0.78,4.00,–,–,–,–,–,–,–,–
CCCCCCCCCCCC(=O)OC[C@H](OC(=O)CCCCCCCCCCC)[C@H](O)[C@H](O)Cn1c2nc(=O)[nH]c(=O)c-2nc2cc(C)c(C)cc21,> 50,4.60,<0.5,–,–,–,–,–,–,–
CC(=O)OC[C@H](OC(C)=O)[C@H](OC(C)=O)[C@@H](Cn1c2nc(=O)n(C)c(=O)c-2nc2cc(C)c(C)cc21)OC(C)=O,12.5,< 4.00,>2,–,–,–,–,–,–,–
CCCCCC(=O)OC[C@H](OC(=O)CCCCC)[C@H](OC(=O)CCCCC)[C@@H](Cn1c2nc(=O)[nH]c(=O)c-2nc2cc(C)c(C)cc21)OC(=O)CCCCC,50,< 4.30,>1,–,–,–,–,–,–,–
Cc1cc2nc3c(=O)[nH]c(=O)nc-3n(CCO)c2cc1C,> 50,< 4.30,1,–,–,–,–,–,–,–
CCCCCCCCCCCC(=O)OC[C@H](OC(=O)CCCCCCCCCCC)[C@H](OC(=O)CCCCCCCCCCC)[C@@H](Cn1c2nc(=O)[nH]c(=O)c-2nc2cc(C)c(C)cc21)OC(=O)CCCCCCCCCCC,> 50,< 4.30,1,–,100,100,–,–,–,–
CCCCCC(=O)OC[C@H](OC(=O)CCCCC)[C@H](OC(=O)CCCCC)[C@H](O)Cn1c2nc(=O)[nH]c(=O)c-2nc2cc(C)c(C)cc21,25,< 4.00,>4,–,–,–,–,–,–,–
CC(=O)OC[C@H](OC(C)=O)[C@H](OC(C)=O)[C@@H](Cn1c2nc(=O)[nH]c(=O)c-2nc2cc(C)c(C)cc21)OC(C)=O,25,4.60,1,–,–,–,–,–,–,–
CCCC(=O)OC[C@H](OC(=O)CCC)[C@H](OC(=O)CCC)[C@H](O)Cn1c2nc(=O)[nH]c(=O)c-2nc2cc(C)c(C)cc21,50,< 4.00,>2,–,–,–,>90,>90,–,–
CCCCCCCCCCCC(=O)OC[C@H](OC(=O)CCCCCCCCCCC)[C@H](OC(=O)CCCCCCCCCCC)[C@H](O)Cn1c2nc(=O)[nH]c(=O)c-2nc2cc(C)c(C)cc21,> 50,4.30,1,–,–,–,–,–,Active,Active
CCCC(=O)OC[C@H](OC(=O)CCC)[C@H](O)[C@H](O)Cn1c2nc(=O)[nH]c(=O)c-2nc2cc(C)c(C)cc21,25,< 4.00,>4,–,–,–,>90,>90,–,–
CCCC(=O)OC[C@H](OC(=O)CCC)[C@H](OC(=O)CCC)[C@@H](Cn1c2nc(=O)[nH]c(=O)c-2nc2cc(C)c(C)cc21)OC(=O)CCC,50,4.00,2,–,–,–,>90,>90,–,–
